One data set deals with P. falciparum strain 3D7. Put plainly: Antimalarial activity, P. falciparum lactate dehydrogenase growth inhibition assay. It is filed as cell-based, Plasmodium falciparum. Particulars: for IC50: P. falciparum 3D7 in human erythrocytes, 72 h, LDH readout, read-out: IC50 a (In vitro IC50 values against P. falciparum); for fold decrease of antimalarial activity with respect to RSM932A: relative to RSM932A; for fold decrease in parasite lethality with respect to BR-31: relative to homologous BR-31; for fold decrease in antimalarial activity with respect to the reference compounds BR-23 / BR-25: Fg-9, Fa-21, Fg-14 vs BR-23, Ff-1, Ff-7, Ff-3 vs BR-25. As for the experimental part: Parasites of the P. falciparum strain 3D7 were grown in fresh group 0 positive human erythrocytes, obtained from the Centro Regional de Transfusion Sanguínea-SAS (Granada, Spain) and suspended at 5% haematocrit in RPMI 1640 containing 2% human serum, 0.2% NaHCO3, 0.5% Albumax II, 150 μM hypoxanthine, and […] gentamicin. Flasks were incubated at 37 °C, under 5% CO2 and 95% air mixture. […] The stock culture was then diluted with complete medium and non-parasitized erythrocytes to yield a haematocrit of 2% and parasitemia of 0.25%. Stock solutions of the test drugs were prepared at an initial concentration of 200 mM in DMSO, serially diluted and dispensed into triplicate in 96-well plates to yield final concentrations ranging from 0.0039 to 2 μM. The final well volume was 200 μL with a final concentration of DMSO 0.001%. Each plate also included positive growth controls, where only medium were added, and negative growth controls with 100 nM of chloroquine. […] A multidrop dispenser was used to add 50 μL of synchronized parasite culture per well. After 72 h of growth in presence of test compounds, the plates were stored frozen at −20 °C for at least 24 h. Next, they were thawed at room temperature. Parasite growth inhibition assays and IC50 determinations were carried out following the P. falciparum lactate dehydrogenase assay where parasite viability is quantified by measuring LDH activity upon APAD+ addition, a cofactor that is specific to the Plasmodium enzyme. To evaluate LDH activity, 140 μL of freshly made reaction mix, containing 143 mM sodium L-lactate, 143 μM APAD, 178.75 μM NBT, 1 U/mL diaphorase, 0.7% Tween 20 and 100 mM Tris-HCl (pH 8.0) were dispensed into plates. After 10 min of incubation in the dark at room temperature, absorbance was measured at 630 nm with a vmax precision multiwell plate reader from Molecular Devices, by using the accompanying SOFT maxPro software for analysis.

For another data set, the target named is T1, PfCK (Plasmodium falciparum, UniProt Q8IM71).
T1 construct: A truncated form of PfCK (Δ79-440) featuring an N-terminal 6× His-tag; 6xHis (N); host or cells: Escherichia coli BL21 (DE3) Star
Put plainly: Spectrophotometric coupled enzymatic assay for PfCK activity (substrate choline). Particulars: for IC50: IC50 PfCK b (compound concentration required to inhibit PfCK enzyme by 50%), substrate choline 4 mM, ATP 2 mM. It is filed as biochemical. As for the experimental part:
A truncated form of PfCK (Δ79-440) featuring an N-terminal 6× His-tag was purchased from Genescript (Piscataway, NJ, USA), cloned into a pET-28a vector and transformed into Escherichia coli BL21 (DE3) Star cells (Invitrogen, Carlsbad, CA, USA). The transformed bacteria were cultured in Luria-Bertani (LB) medium at 37 °C until OD600 = 0.6 and the expression was induced with 1 mM isopropyl β-D-1-thiogalactopyranoside (IPTG). The cell culture was grown overnight at 20 °C and 180 rpm. Cells were pelleted by centrifugation at 10,000 rpm, resuspended in 50 mM Tris/HCl pH 7.5, 500 mM NaCl, 0.2 mM phenylmethylsulphonyl fluoride (PMSF, Sigma Aldrich, St. Luis, MO, USA), DNase (Sigma Aldrich, St. Luis, MO, USA), 0.5 mM β-mercaptoethanol (Sigma Aldrich, St. Luis, MO, USA) and sonicated. Separation of the soluble from the insoluble fraction was obtained by centrifugation at 15,000 rpm and 4 °C. The target enzyme was purified by a two-step purification protocol. In the first step, the cell lysate was incubated for 45 min with Ni-NTA resin (Qiagen, Venlo, The Netherlands) in a gravity column. Then, the column was washed with 40 column volumes (CV) of 50 mM Tris/HCl pH 7.5, 300 mM NaCl, 10 mM imidazole and 1 CV of 50 mM Tris/HCl pH 7.5, 300 mM NaCl, 40 mM imidazole. Finally, the His-tagged enzyme was eluted from the column using a 50 mM Tris/HCl pH 7.5, 300 mM NaCl, 400 mM imidazole buffer. A subsequent size-exclusion chromatography step was implemented to further polish the sample using a HiPrep 26/60 Sephacryl 100 HR column (GE Healthcare, Little Chalfont, Buckinghamshire, UK) previously equilibrated with 20 mM Tris/HCl pH 7.5, 150 mM NaCl buffer. This second purification step afforded a pure protein sample. The protein production yield was estimated to be nearly 2.5 mg of recombinant enzyme per liter of bacterial culture.
A spectrophotometric 96-well plate assay for PfCK activity was established based on an assay previously described. The reaction mix was composed as follows: 100 mM Tris/HCl pH 7.5, 100 mM KCl, 10 mM MgCl2, 0.5 mM phosphoenolpyruvate, 0.25 mM NADH, 4 U of pyruvate kinase, 5 U lactate dehydrogenase, 2 mM ATP, 4 mM choline chloride and different concentrations of the selected compounds. All the necessary compounds for the assay were purchased from Sigma Aldrich (St. Luis, MO, USA) and the final assay volume was 200 μL. The enzymatic reaction was initiated by the addition of the enzyme at less than 10 nM concentration and the reaction rates were measured by monitoring the decrease in the absorbance at 340 nm for 20 min at room temperature using a Spark10M instrument (Tecan). Finally, the IC50 values for each compound were determined by plotting the enzyme fractional activity (f.a.) against the logarithm of compound concentration (log[I]). Curve-fitting was performed with a dose-response curve from Origin (OriginLab Corporation, Northampton, MA, USA), using the following equation: f.a.=1/1+10^logIC50−logI
All data points were collected in triplicate and the final dose-response curves were plotted with MATLAB (R2018a (9.4.0.813654), 2018, MathWorks, Natick, MA, USA). See curves in Figure S1 in Supplementary Materials.

Where [1] appears, read: Plasmodium falciparum, Erythrocyte.
Setting [2] is: read-out: PfCK Fractional Activity at 25 µM.

Here are results for 14 compounds from article PMC8621770, “New Compounds with Bioisosteric Replacement of Classic Choline Kinase Inhibitors Show Potent Antiplasmodial Activity” (Pharmaceutics, 2021).

A word on the IC50: it is the concentration that inhibits the measured activity by half. The term melting point denotes the temperature, or range, at which the solid turns liquid.

Counter-ions that a name gives are not always drawn. Like-named read-outs stand apart in the source and are kept apart here.

T1 sequence (Q8IM71 entry or part of it): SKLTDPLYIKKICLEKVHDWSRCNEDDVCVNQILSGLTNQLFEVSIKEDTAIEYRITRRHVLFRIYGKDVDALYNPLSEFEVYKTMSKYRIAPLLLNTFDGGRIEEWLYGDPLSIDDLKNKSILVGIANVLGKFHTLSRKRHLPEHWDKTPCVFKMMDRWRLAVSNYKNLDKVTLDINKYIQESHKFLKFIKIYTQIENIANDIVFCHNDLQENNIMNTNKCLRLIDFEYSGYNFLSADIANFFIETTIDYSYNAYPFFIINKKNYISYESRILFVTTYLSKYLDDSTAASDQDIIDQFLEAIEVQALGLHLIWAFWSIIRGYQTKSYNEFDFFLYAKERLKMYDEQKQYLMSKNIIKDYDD

Regarding `CN(c1ccc(Cl)cc1)c1nc[n+](Cc2ccc(-c3ccc(C[n+]4cnc(N(C)c5ccc(Cl)cc5)c5ccsc54)cc3)cc2)c2sccc12.[Br-].[Br-]` [Fp-8, 1,1’-([1,1’-biphenyl]-4,4’-diylbis(methylene))bis(4-((4-chlorophenyl)(methyl)amino)thieno[2,3-d]pyrimidin-1-ium) bromide], the half-maximal inhibitory concentration (IC50) in the data set with P. falciparum strain 3D7 (setting [1]) came to 282 nM. Moreover, in the data set with P. falciparum strain 3D7, the “fold decrease of antimalarial activity with respect to RSM932A” value is recorded as “up to 10 fold” and the “fold decrease in parasite lethality with respect to BR-31” value came to 10 fold. Further, 4170 ± 480 nM corresponded to half-maximal inhibition against PfCK (IC50). Moreover, on PfCK (setting [2]), the remaining activity at 25 µM stood at 8.1 ± 5.8%.
In the case of `[Br-].[Br-].c1cc2c(N3CCCCCC3)nc[n+](Cc3ccc(CCc4ccc(C[n+]5cnc(N6CCCCCC6)c6ccsc65)cc4)cc3)c2s1` [Fg-19, 1,1’-((ethane-1,2-diylbis(4,1-phenylene))bis(methylene))bis(4-(azepan-1-yl)thieno[2,3-d]pyrimidin-1-ium) bromide], the melting point was in the range of 298 to 300 °C. In addition, the half-inhibitory concentration (IC50) in the data set on P. falciparum strain 3D7 (setting [1]) turned out to be 71.5 nM.
Consider `c1cc2c(N3CCCCC3)nc[n+](Cc3ccc(-c4ccc(C[n+]5cnc(N6CCCCC6)c6ccsc65)cc4)cc3)c2s1` [Fg-30, 1,1’-([1,1’-biphenyl]-4,4’-diylbis(methylene))bis(4-(piperidin-1-yl)thieno[2,3-d]pyrimidin-1-ium) bromide], for which the 50% inhibitory concentration (IC50) in the data set with P. falciparum strain 3D7 (setting [1]) is 27.9 nM. The remaining activity at 25 µM on PfCK (setting [2]) was 54.8 ± 7.2%.
In the case of `[Br-].[Br-].c1cc2c(s1)c(N1CCCCCC1)nc[n+]2Cc1ccc(CCc2ccc(C[n+]3cnc(N4CCCCCC4)c4sccc43)cc2)cc1` [Fa-23, 1,1’-((ethane-1,2-diylbis(4,1-phenylene))bis(methylene))bis(4-(azepan-1-yl)thieno[3,2-d]pyrimidin-1-ium) bromide], the melting point was in the range of 321 to 323 °C. In the data set with P. falciparum strain 3D7 (setting [1]), the IC50 was 67.8 nM.
The like results for `[Br-].[Br-].c1cc2c(s1)c(N1CCCCC1)nc[n+]2Cc1ccc(CCc2ccc(C[n+]3cnc(N4CCCCC4)c4sccc43)cc2)cc1` [Fa-25, 1,1’-((ethane-1,2-diylbis(4,1-phenylene))bis(methylene))bis(4-(piperidin-1-yl)thieno[3,2-d]pyrimidin-1-ium) bromide] were, in that order, 314 to 316 °C and 34.7 nM.
Compound `[Br-].[Br-].c1cc2c(N3CCCCC3)nc[n+](Cc3ccc(CCCCc4ccc(C[n+]5cnc(N6CCCCC6)c6ccsc65)cc4)cc3)c2s1` gave a melting point of 282 to 284 °C.
On to `[Br-].[Br-].c1cc2c(N3CCCC3)nc[n+](Cc3ccc(CCCCc4ccc(C[n+]5cnc(N6CCCC6)c6ccsc65)cc4)cc3)c2s1` [Ff-3, 1,1’-((butane-1,4-diylbis(4,1-phenylene))bis(methylene))bis(4-(pyrrolidin-1-yl)thieno[2,3-d]pyrimidin-1-ium) bromide], for which the melting point was in the range of 288 to 290 °C. Moreover, the “fold decrease in antimalarial activity with respect to the reference compounds BR-23 / BR-25” value with P. falciparum strain 3D7 worked out at 10 fold. In the data set on P. falciparum strain 3D7 (setting [1]), the IC50 came to 38.8 nM.
As to `c1cc2c(s1)c(N1CCCCCC1)cc[n+]2Cc1ccc(-c2ccc(C[n+]3ccc(N4CCCCCC4)c4sccc43)cc2)cc1` [Fg-10, 1,1’-([1,1’-biphenyl]-4,4’-diylbis(methylene))bis(7-(azepan-1-yl)thieno[3,2-b]pyridin-4-ium) bromide], the concentration for half-maximal inhibition (IC50) with P. falciparum strain 3D7 (setting [1]) turned out to be 53 nM. Also, the remaining activity at 25 µM at PfCK (setting [2]) turned out to be 44.7 ± 8.55%.
Turning to `CN(c1ccccc1)c1nc[n+](Cc2ccc(-c3ccc(C[n+]4cnc(N(C)c5ccccc5)c5sccc54)cc3)cc2)c2ccsc12.[Br-].[Br-]` [Fp-1, 1,1’-([1,1’-biphenyl]-4,4’-diylbis(methylene))bis(4-(methyl(phenyl)amino)thieno[3,2-d]pyrimidin-1-ium)bromide], the half-inhibitory concentration (IC50) in the data set with P. falciparum strain 3D7 (setting [1]) was determined as 142 nM. In the data set on P. falciparum strain 3D7, the “fold decrease of antimalarial activity with respect to RSM932A” value is reported as “up to 10 fold” and the “fold decrease in parasite lethality with respect to BR-31” value was 10 fold. This compound also came in with an IC50 at PfCK of 7270 ± 230 nM. Also, the remaining activity at 25 µM on PfCK (setting [2]) is 12.9 ± 3.32%.
Regarding `[Br-].[Br-].c1cc2c(s1)c(N1CCCC1)cc[n+]2Cc1ccc(CCCCc2ccc(C[n+]3ccc(N4CCCC4)c4sccc43)cc2)cc1` [Ff-1, 4,4’-((butane-1,4-diylbis(4,1-phenylene))bis(methylene))bis(7-(pyrrolidin-1-yl)thieno[3,2-b]pyridin-4-ium) bromide], the “fold decrease in antimalarial activity with respect to the reference compounds BR-23 / BR-25” value with P. falciparum strain 3D7 was 10 fold. Moreover, the results for the IC50 in the data set with P. falciparum strain 3D7 (setting [1]) and against PfCK were 90.1 nM and 10900 ± 1330 nM, respectively. Besides, the remaining activity at 25 µM at PfCK (setting [2]) was 47 ± 3.53%.
Take `c1cc2c(s1)c(N1CCCCC1)nc[n+]2Cc1ccc(-c2ccc(C[n+]3cnc(N4CCCCC4)c4sccc43)cc2)cc1` [Fa-24, 1,1’-([1,1’-biphenyl]-4,4’-diylbis(methylene))bis(4-(piperidin-1-yl)thieno[3,2-d]pyrimidin-1-ium) bromide]: the half-inhibitory concentration (IC50) in the data set on P. falciparum strain 3D7 (setting [1]) is 57.8 nM. Besides, on PfCK (setting [2]), the remaining activity at 25 µM amounted to 57.1 ± 5.15%.
On to `c1cc2c(s1)c(N1CCCCCC1)nc[n+]2Cc1ccc(OCCOc2ccc(C[n+]3cnc(N4CCCCCC4)c4sccc43)cc2)cc1` [Ff-34, 1,1′-(((ethane-1,2-diylbis(oxy))bis(4,1-phenylene))bis(methylene))bis(4-(azepan-1-yl)thieno[3,2-d]pyrimidin-1-ium) bromide], for which the IC50 with P. falciparum strain 3D7 (setting [1]) worked out at 87.9 nM. The remaining activity at 25 µM at PfCK (setting [2]) came out at 52.2 ± 12.4%; at PfCK (read-out: residual enzyme activity), 52.2%.
As for `c1cc2c(s1)c(N1CCCC1)cc[n+]2Cc1ccc(-c2ccc(C[n+]3ccc(N4CCCC4)c4sccc43)cn2)nc1` [Fg-12, 4,4’-([2,2’-bipypidine]-5,5’-diylbis(methylene))bis(7-(pyrrolidin-1-yl)thieno[3,2-b]pyridin-4-ium bromide)], the IC50 in the data set with P. falciparum strain 3D7 is 305 nM.
For `c1cc2c(s1)c(N1CCCCCC1)cc[n+]2Cc1ccc(-c2ccc(C[n+]3ccc(N4CCCCCC4)c4sccc43)cc2)cc1` (as salt: bromide) [Fg-10, 1,1’-([1,1’-biphenyl]-4,4’-diylbis(methylene))bis(7-(azepan-1-yl)thieno[3,2-b]pyridin-4-ium) bromide], the melting point fell in the range of 220 to 222 °C.
